Usually GI50 stands for the concentration giving 50% growth inhibition. The TGI is the concentration giving total growth inhibition. A higher TGI goes with less potent growth arrest.

Common to all, as to assay: DTP human tumour cell line panel, 48 h
The test system of assay [1] is IGROV1 ovarian.
Assay [2] deals with HOP-92 NSCLC.
Assay [3] relates to COLO 205 colon.
In assay [4] the test system is HL-60(TB) leukemia.
The test system of assay [5] is OVCAR-5 ovarian.
The subject of assay [6] is HS 578T breast.
Assay [7] has as its system DU-145 prostate.
Assay [8] concerns MDA-MB-435.
The subject of assay [9] is KM12 colon.
For assay [10], the system named is SF-539 CNS.

Where “and” joins values, the source holds several entries; their conditions need not be identical. Identical values can stand only once.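 These data come from cells grown in 96-well plates and exposed to compound for 48 hours at five concentrations. Abbreviation: GI50, concentration required for 50% inhibition of growth. TGI marks complete inhibition of growth.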

Turning to `COc1cc(/C=C/c2cc(/C=C/c3ccc(O)c(OC)c3)n(C(=O)Nc3ccc(C)cc3C)n2)ccc1O`, the GI50 was 0.464 µM in assay [1]; 0.576 µM in [2]; 1.9 µM in assay [3]; 0.262 µM in assay [4]; 1.51 µM in [5]; 0.295 µM in assay [6]. In addition, in assay [7], the GI50 was 0.387 µM. The TGI is 2.76 µM in [1]; 3.71 µM in [2]; 3.38 µM in assay [3]; 0.801 µM in [4]; 6.85 µM in [5]; more than 100 µM in assay [6]. The compound also returned a TGI in [7] of 1.5 µM.

Take `CN(CCC#N)c1ccc(/C=C(\C#N)c2ccc(Br)cc2)cc1`: the GI50 is more than 100 µM in [1]; 2.52 µM in [2]; 4.43 µM in assay [4]; more than 100 µM in [5]; 1.97 µM in [8]; more than 100 µM in [6]. Besides, the GI50 in [9] is 3.7 µM; in assay [7], more than 100 µM. Moreover, the TGI in assay [1], in assay [2], in [4], in assay [5], in assay [8] and in assay [6] was more than 100 µM each time. In addition, the concentration for total growth inhibition (TGI) in assay [9] and in assay [7] was more than 100 µM throughout.

`Cc1ccc(-c2nc3ccc(Cl)cc3c(=O)n2N2C(=O)CSC2c2ccccc2Cl)cc1` (stereo unspecified): the GI50 in assay [1] was 3.69 µM; in [2], 6.74 µM; in assay [3], 9 µM; in assay [5], more than 100 µM; in assay [8], more than 100 µM; in assay [10], more than 100 µM. Further, the GI50 was 2.62 µM in assay [6], more than 100 µM in assay [9] and 58.4 µM in assay [7]. In addition, the TGI in assay [1], in assay [2], in assay [3], in [5], in assay [8] and in [10] was more than 100 µM in each case. The TGI is 17.2 µM in assay [6], more than 100 µM in assay [9] and more than 100 µM in assay [7].

For `COc1cccc2c(=O)c3c(sc12)c(N1CCNCC1)nc1ccccc13`, the GI50 was 1.41 µM in assay [1]; 1.24 µM in [2]; 2.07 µM in assay [3]; 1.79 µM in [5]; 1.76 µM in assay [8]; 1.75 µM in [10]. The GI50 in assay [6] is 1.7 µM; in assay [9], 1.79 µM; in [7], 1.72 µM. In addition, the TGI in [1] is 2.88 µM; in assay [2] it was 2.73 µM; in assay [3], 4.72 µM; in [5] it was 3.24 µM; in [8], 3.23 µM; in assay [10], 3.21 µM. The TGI was determined as 3.71 µM in assay [6], 3.41 µM in [9] and 3.19 µM in assay [7].

Regarding `COc1cccc(C#Cc2ccccc2C#CCCCCO)c1`, the GI50 in assay [1] was 10.3 µM; in assay [2], 2.49 µM; in assay [3] it was 17.9 µM; in [5], 14.6 µM; in [8], 1.92 µM; in [10] it was 11.5 µM. Besides, the GI50 in assay [6] is 22.9 µM; in assay [9] it was 12.4 µM; in assay [7], 4.17 µM. Further, the TGI in assay [1] worked out at 22.6 µM; in assay [2], 21.7 µM; in assay [3], 36.2 µM; in assay [5], 29.3 µM; in [8] it was 8.2 µM; in assay [10] it was 24.6 µM. In addition, the TGI in assay [6] worked out at 56.9 µM; in assay [9], 41.8 µM; in assay [7] it was 18.9 µM.

Turning to `COc1ccc(CCN2COc3c([C@@H](C)CCC=C(C)C)ccc(C)c3C2)cc1OC`, the GI50 in assay [1] was 1.08 µM; in assay [3] it was 1.79 µM; in assay [4], 4.11 µM; in assay [5], 8.53 µM; in assay [8] it was 3.11 µM; in [10], 4.48 µM. Besides, the GI50 was 3.94 µM in assay [6] and 2.86 µM in [9]. Further, the TGI came out at 3.52 µM in [1]; 3.19 µM in [3]; 60.9 µM in assay [4]; 20.8 µM in [5]; 10.9 µM in assay [8]; 15.9 µM in assay [10]. Further, the TGI in [6] was 17.3 µM; in assay [9], 9.64 µM.

Consider `CN(C)CCN1C(=O)c2ccc3c4c(ccc(c24)C1=O)C(=O)N(CCN=C=S)C3=O`, for which the GI50 is 0.051 µM in assay [1]; 0.0262 µM in assay [2]; 0.0254 µM in [3]; 0.153 µM in assay [5]; 0.0585 µM in assay [8]; 0.0482 µM in assay [10]. Also, the GI50 in assay [6] was 0.127 µM; in assay [9] it was 0.0415 µM; in assay [7], 0.0415 µM. Also, the TGI in [1] is 0.236 µM; in assay [2] it was 0.174 µM; in [3] it was 0.0922 µM; in assay [5], 0.815 µM; in [8], 0.249 µM; in assay [10], 0.212 µM. In addition, the figures for the TGI in assay [6], in assay [9] and in assay [7] were 0.68 µM, 0.173 µM and 0.149 µM, respectively.

As for `Nc1ccc2cc3ccc(N)cc3nc2c1`, the GI50 is 2.07 µM [middle of 4 runs] in assay [1]; 0.936 µM in assay [3]; 1.97 µM in [5]; 1.56 µM in [10]; 631 nM [middle of 4 runs] in [9]; 1.45 µM in [7]. The TGI in [1] was 7.69 µM [middle of 4 runs]; in assay [2], 6.14 µM and 6.32 µM and 7.11 µM; in [5] it was 4.98 µM and 30.1 µM and 28.6 µM; in assay [8] it was 4.37 µM and 4.04 µM; in [10], 4.54 µM [middle of 4 runs]; in assay [6], 6.59 µM and 7.97 µM and 9.65 µM. Moreover, the TGI was 6.73 µM [middle of 4 runs] in [9]; 18.1 µM and 10 µM and 9.47 µM in [7].

In the case of `COc1cc(/C=C/c2ccc(OC)c(OC)c2)cc(OC)c1`, the TGI in assay [1] was more than 100 µM; in assay [2], more than 100 µM; in [3], 39.7 µM; in assay [5], more than 100 µM; in assay [8] it was more than 100 µM; in assay [10], more than 100 µM. Moreover, the TGI in assay [6] was 89.8 µM; in [9] it was 40.6 µM; in assay [7], more than 100 µM.

The values are drawn from PubChem BioAssay (NCI).
